Results from patent US8008007B2, “S-adenosyl-L-methionine analogs with extended activated groups for transfer by methyltransferases” (RWTH Aachen, priority 2005, dated 2011).

Tests used:
Type in all cases: biochemical
[1] = target: T1, M.TaqI (Thermus aquaticus, UniProt P14385); assay: Modification of adenine-N6 in duplex oligodeoxynucleotide I.II by M.TaqI, nucleoside analysis by HPLC/ESI-MS; conditions: 37° C. over night, near-stoichiometric enzyme
T1 construct: made in house
From the text: Transfer of the activated ethyl (CH2CH3), propyl (CH2CH2CH3), prop-2-enyl (CH2CHCH2), prop-2-ynyl group (CH2CCH), but-2-ynyl (CH2CCCH3), pent-2-ynyl (CH2CCCH2CH3) or benzyl group (CH2C6H5) from cofactors 3-9 by the DNA adenine-N6 methyltransferase M.TaqI, the DNA cytosine-C5 methyltransferase M.HhaI variant Q82A or the DNA cytosine-N4 methyltransferase M.BcnIB to DNA was first investigated using short duplex oligodeoxynucleotides as substrates. After enzymatic transfer the duplex oligodeoxynucleotides were enzymatically fragmented and the resulting modified nucleosides were analyzed by reversed-phase HPLC coupled with ESI-MS.
M.TaqI was denatured by heating to 95° C. for 10 min and removed by centrifugation ([…], 2 min). The modified duplex oligodeoxynucleotides I^Z—R-II were desalted by gel filtration (NAP-5 column, Amersham Biosciences, Freiburg, Germany), eluted with water (1 mL) and lyophilized.
The modified duplex oligodeoxynucleotides I^Z—R-II were dissolved in buffer (100 μL, 10 mM Tris hydrochloride, 10 mM magnesium chloride, 1 mM zinc acetate, pH 7.5) containing Nuclease PI (1500 u, Sigma, Taufkirchen, Germany) and calf intestine alkaline phosphatase (30 u, MBI Fermentas, St. Leon-Rot, Germany) and incubated at 37° C. for 4 h. Nucleosides were analyzed by reversed-phase HPLC (Symmetry-C18 5 μm, 100 Å, 250×4.6 mm, equipped with a Symmetry-C18 5 μm, 100 Å, 20×4.6 mm pre-column, Waters, Eschborn, Germany). Compounds were eluted with acetonitrile (5% for 7 min, followed by linear gradients to 6% in 15 min, to 35% in 8 min and to 70% in 2 min) in triethylammonium acetate buffer (10 mM, pH 7.0) at a flow of 1 mL/min and detected at 254 nm.
For HPLC-coupled ESI-MS measurements compounds were eluted with methanol (0% for 3 min, followed by a linear gradient to 100% in 22 min) in ammonium formate buffer (20 mM, pH 3.5). A post-column mobile phase modification (equal co-flow of 96% methanol, 4% formic acid) was used to enhance the detection efficiency of 2′-deoxyadenosine and its derivatives. Mass spectra were recorded in 200-370 m/z range.
The hemimethylated duplex oligodeoxynucleotide I.II (compare Scheme 5, Example 2A) was produced by mixing equal molar amounts of complementary single-stranded oligodeoxynucleotide I (5′-GCCGCTCGATGCCG-3′) (SEQ. ID NO. 1) and II (5′-CGGCATCGA^MeGCGGC-3′, A^Me=N6-methyl-2′-deoxyadenosine) (SEQ ID NO. 2) in water, heating at 85° C. for 5 min and slow cooling to room temperature. […] The solution was heated to 95° C. for 10 min, supplemented with Proteinase K and incubated at 55° C. for 2 h. Hydrolysis products were removed by gel filtration (G-25 column, Amersham Biosciences).
The obtained solution was treated with buffer ( 1/10 volume, 100 mM Tris hydrochlorid, 100 mM magnesium chloride, 10 mM zinc acetate, pH 7.5) containing Nuclease P1 (1.14 u, Sigma, Taufkirchen, Germany) and calf intestine alkaline phosphatase (18 u, MBI Fermentas), incubated at 42° C. for 4 h and passed through a Microcon YM-3 spin column (Amicon). Nucleosides were analyzed by reversed-phase HPLC (Discovery HS C18 75×2.1 mm, 3 μm, equipped with a Supelguard Discovery HS C18 20×2.1 mm, 5 μm, pre-column, Supelco, Germany) coupled with a mass spectrometric detector (HP 1100 series ESI-MS equipped with single quadruple). Compounds were eluted with methanol (0% for 3 min, followed by linear gradients to 20% in 15 min and to 80% in 2 min) in ammonium formate buffer (20 mM, pH 3.5) at a flow of 0.3 mL/min. For on-line mass spectrometric detection post-column mobile phase modification (equal co-flow of 96% methanol, 4% formic acid and 1 mM sodium hydroxide) was used to enhance the detection efficiency of 2′-deoxyadenosine, 2′-deoxycytidine and their derivatives. Mass spectra were recorded in 50-600 m/z range.

[2] = target: T2, M.TaqI-V21G (Thermus aquaticus, UniProt P14385, V21G); assay: DNA protection assay with M.TaqI variant V21G on phage lambda DNA; conditions: 1 μg phage lambda DNA, cofactor 300 μM, 60° C. for 4 h, then R.TaqI
T2 construct: made in house
From the text: (§1) Transfer kinetics of the activated ethyl (—CH2CH3), propyl (—CH2CH2CH3), prop-2-enyl (—CH2CH═CH2), prop-2-ynyl (—CH2C≡CH), but-2-ynyl (—CH2C≡CCH3), pent-2-ynyl (—CH2C≡CCH2CH3) and benzyl group (—CH2C6H5) from cofactors 3-9 by the DNA adenine-N6 methyltransferase M.TaqI and its variant V21 G, the DNA cytosine-C5 methyltransferase M.HhaI and its variant Q82A, the DNA cytosine-N4 methyltransferase M.BcnIB and the DNA cytosine-C5 methyltransferase M.SssI variant Q142A to phage lambda DNA (48502 base pairs) were investigated using a DNA protection assay. This assay makes use of the fact that DNA methyltransferase-catalyzed modifications of nucleobases within the recognition sequences of restriction endonucleases can protect the DNA against fragmentation by these enzymes. […] Unmodified DNA containing 5′-TCGA-3′ recognition sequences is readily fragmentated by R.TaqI. After DNA modification by M.TaqI in the presence of a cofactor with an activated group Z—R modified 5′-TCGA^Z—R-3′ sequences are formed and, as a result, R.TaqI is unable to fragment the modified DNA. Occurrence of fragmentation is then analyzed by agarose gel electrophoresis.
(§2) By varying the amounts of DNA methyltransferase, this assay is used to investigate the enzymatic activities of the different DNA methyltransferases with cofactors 3-9 and compare them to the enzymatic activities with the natural cofactor 1. The minimal amount of DNA methyltransferase needed to fully protect 1 μg of phage lambda DNA against restriction endonuclease fragmentation under the given experimental conditions is defined as one enzyme unit (u).
(§3) Afterwards a solution (30 μL) containing R.TaqI restriction endonuclease (40 u, MBI Fermentas), bovine serum albumin (0.166 mg/mL) and buffer (16.6 mM Tris hydrochloride, 166 mM sodium chloride, 8.3 mM magnesium chloride, pH 8.0) was added to each dilution and incubation at 60-65° C. was continued for 15 min. Loading buffer (10 μL, 0.25% bromphenol blue, 30% glycerol) was added to each sample, and aliquots (12 μL) were analyzed for the degree of protection by agarose gel (1%) electrophoresis. Parallel control experiments were performed with phage lambda DNA in the absence of M.TaqI and in the presence of M.TaqI (200 ng).
Therefore, the codon for V21 was changed to a codon for glycine by standard PCR mutagenesis (Ho et al., (1989) Gene 77, 51-59) and the correct DNA sequence of the complete gene was verified by DNA sequencing. […] The DNA protection assay with the V21G variant was performed as described for the wild type (Example 3A.1).

[3] = target: T1, M.TaqI; assay: DNA protection assay with M.TaqI (wild-type) on phage lambda DNA; conditions: 1 μg phage lambda DNA, cofactor 300 μM, 60° C. for 4 h, then R.TaqI; 1 u = minimal enzyme amount fully protecting 1 μg DNA
From the text: as §1, §2, §3
Afterwards a solution (10 μL) containing R.TaqI restriction endonuclease (10 u, MBI Fermentas), bovine serum albumin (0.1 mg/mL) and buffer (33 mM Tris acetate, 66 mM potassium acetate, 10 mM magnesium acetate, pH 7.9) was added to each dilution and incubation was continued at 65° C. for 1 h. […] Parallel control experiments were performed with phage lambda DNA in the absence of M.TaqI and in the presence of M.TaqI (180 ng).

[4] = target: T3, M.HhaI-Q82A (Haemophilus parahaemolyticus, UniProt P05102, Q82A); assay: DNA protection assay with M.HhaI variant Q82A on phage lambda DNA; conditions: 1.16 μg phage lambda DNA, cofactor 300 μM, 37° C. for 4 h, then R.Hin6I; pH 7.4 (pH 6.0 for cofactor 6)
T3 construct: made in house
From the text: as §1, §2
(§4) Afterwards, the reactions were stopped by heating to 80° C. for 10 min. […] Parallel control experiments were performed with phage lambda DNA in the absence of M.HhaI and in the presence of M.HhaI (278 ng).
The DNA protection assay with the M.HhaI variant Q82A (see Example 2B) was performed as described for the wild type enzyme (Example 3B.1).

[5] = target: T4, M.SssI-Q142A (Spiroplasma monobiae, UniProt P15840, Q142A); assay: DNA protection assay with M.SssI variant Q142A on phage lambda DNA; conditions: 1 μg phage lambda DNA, cofactor 300 μM, 37° C. for 4 h, then R.BstUI
T4 construct: made in house
From the text: as §1
By varying the amounts of DNA methyltransferase, this assay is used to investigate the enzymatic activities of the different DNA methyltransferases with cofactors 3-9 and compare them to the enzymatic activities with the natural cofactor 1. […]
Two fold serial dilutions (20 μL) of M.SssI-Q142A (starting with 3300 ng, 73 pmol) in buffer (10 mM Tris hydrochloride, 50 mM sodium chloride, 1 mM dithiothreitol, pH 7.9), phage lambda DNA (1 μg, 31.3 fmol, 3113 5′-CG-3′ recognition sequences, […] recognition sequences, MBI Fermentas) and the natural cofactor 1 (300 μM) or cofactor analogs 5 and 7 (300 μM) were incubated at 37° C. for 4 h. […] Loading buffer (10 μL, 0.25% bromphenol blue, 30% glycerol) was added to each sample, and aliquots (15 μL) were analyzed for the degree of protection by agarose gel (1%) electrophoresis.

[6] = system: M.BcnIB; assay: DNA protection assay with M.BcnIB (wild-type) on phage lambda DNA; conditions: 1.10 μg phage lambda DNA, cofactor 300 μM, 37° C. for 4 h, then R.BcnI; pH 7.4 (pH 6.0 for cofactor 6)
From the text: as §1, §2
Afterwards the reactions were stopped by heating to 80° C. for 10 min. A solution (10 μL) containing R.BcnI restriction endonuclease (12 u, MBI Fermentas), bovine serum albumin (0.1 mg/mL) and buffer (33 mM Tris acetate, 66 mM potassium acetate, 26.5 mM magnesium chloride, pH 7.9) was added to each dilution and incubation at 37° C. was continued for 1 h. […] Parallel control experiments were performed with phage lambda DNA in the absence of M.BcnIB and in the presence of M.BcnIB (144 ng).

[7] = target: T5, M.HhaI (Haemophilus parahaemolyticus, UniProt P05102); assay: DNA protection assay with M.HhaI (wild-type) on phage lambda DNA; conditions: 1.16 μg phage lambda DNA, cofactor 300 μM, 37° C. for 4 h, then R.Hin6I; pH 7.4 (pH 6.0 for cofactor 6)
T5 construct: made in house
From the text: as §1, §2, §4

T1 sequence (P14385 whole entry): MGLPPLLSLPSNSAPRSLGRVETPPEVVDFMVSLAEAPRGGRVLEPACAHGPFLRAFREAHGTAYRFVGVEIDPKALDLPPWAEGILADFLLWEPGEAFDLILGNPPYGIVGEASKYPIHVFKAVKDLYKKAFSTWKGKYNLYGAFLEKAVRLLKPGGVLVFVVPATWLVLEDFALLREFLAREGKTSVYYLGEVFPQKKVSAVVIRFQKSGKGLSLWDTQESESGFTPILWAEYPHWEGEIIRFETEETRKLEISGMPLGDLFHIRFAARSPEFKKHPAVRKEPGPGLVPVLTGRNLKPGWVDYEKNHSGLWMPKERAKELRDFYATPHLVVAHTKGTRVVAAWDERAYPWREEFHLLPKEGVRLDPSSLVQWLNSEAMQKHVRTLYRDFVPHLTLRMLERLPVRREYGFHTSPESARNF
T2 sequence (P14385 whole entry V21G): as the sequence (P14385 whole entry) above, with V21G counted along it
T5 sequence (P05102 whole entry): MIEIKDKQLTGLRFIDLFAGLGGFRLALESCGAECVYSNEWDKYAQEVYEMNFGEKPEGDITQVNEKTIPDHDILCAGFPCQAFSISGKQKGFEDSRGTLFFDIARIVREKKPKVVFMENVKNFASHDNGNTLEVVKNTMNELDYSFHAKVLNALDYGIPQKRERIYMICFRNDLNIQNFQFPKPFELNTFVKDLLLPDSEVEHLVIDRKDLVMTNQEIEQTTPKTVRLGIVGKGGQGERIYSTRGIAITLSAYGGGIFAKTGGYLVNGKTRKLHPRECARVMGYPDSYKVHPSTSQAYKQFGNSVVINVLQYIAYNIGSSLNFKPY
T3 sequence (P05102 whole entry Q82A): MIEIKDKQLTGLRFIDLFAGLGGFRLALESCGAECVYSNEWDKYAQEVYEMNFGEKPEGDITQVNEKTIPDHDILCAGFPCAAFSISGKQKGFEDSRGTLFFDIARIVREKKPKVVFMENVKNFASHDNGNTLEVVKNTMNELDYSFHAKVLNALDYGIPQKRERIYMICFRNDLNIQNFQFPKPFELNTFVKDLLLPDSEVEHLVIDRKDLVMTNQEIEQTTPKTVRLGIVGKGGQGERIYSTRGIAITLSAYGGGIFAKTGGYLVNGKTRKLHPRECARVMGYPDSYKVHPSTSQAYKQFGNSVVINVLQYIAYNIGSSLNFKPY
T4 sequence (P15840 whole entry Q142A): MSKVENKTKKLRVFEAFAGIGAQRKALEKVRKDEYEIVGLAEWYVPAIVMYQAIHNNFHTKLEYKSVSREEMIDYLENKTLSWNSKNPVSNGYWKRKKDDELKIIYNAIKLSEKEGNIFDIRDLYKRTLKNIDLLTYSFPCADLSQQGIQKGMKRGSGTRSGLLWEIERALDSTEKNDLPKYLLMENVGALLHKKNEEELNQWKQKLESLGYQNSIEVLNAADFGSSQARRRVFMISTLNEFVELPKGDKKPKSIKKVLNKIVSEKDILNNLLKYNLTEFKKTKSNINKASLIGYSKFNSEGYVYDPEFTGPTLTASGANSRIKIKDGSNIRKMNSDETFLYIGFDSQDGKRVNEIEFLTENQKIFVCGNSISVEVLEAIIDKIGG

Compound	cofactor function for M.TaqI (transfer of group Z-R to adenine-N6) [1]	specific activity of M.TaqI-V21G with the cofactor [2]	specific activity of M.TaqI with the cofactor [3]	specific activity of M.HhaI-Q82A with the cofactor [4]	specific activity of M.SssI-Q142A with the cofactor [5]	specific activity of M.BcnIB with the cofactor [6]	specific activity of M.HhaI with the cofactor [7]
Nc1ncnc2c1ncn2C1OC(C[S+](CCC(N)C(=O)O)Cc2ccccc2)C(O)C1O (mixture of isomers) [Cofactor 9]	functions as a cofactor	2560 u/μg	640 u/μg				
C[S+](CCC(N)C(=O)O)CC1OC(n2cnc3c(N)ncnc32)C(O)C1O (stereo not drawn) [Cofactor 1]		320 u/μg	40960 u/μg	115 u/μg	20 u/μg	444 u/μg	460 u/μg
